In publication PMC5890335 (Journal of immunology (Baltimore, Md. : 1950), 2018):

Experiments:
[1] = target: H2-D^d MHC-I molecule (Mus musculus, UniProt P01900); test: Peptide induction of surface H2-D^d expression on RMAS-D^d cells; format: cell-based; settings: fluorescence index, ANOVA, compared with s.p.VV10, Fig 4c
[2] = target: H2-D^d MHC-I molecule on RMAS-D^d cells (mouse); test: flow cytometry on cells
Chain of H2-D^d MHC-I molecule on RMAS-D^d cells (mouse) (P01900 25-365): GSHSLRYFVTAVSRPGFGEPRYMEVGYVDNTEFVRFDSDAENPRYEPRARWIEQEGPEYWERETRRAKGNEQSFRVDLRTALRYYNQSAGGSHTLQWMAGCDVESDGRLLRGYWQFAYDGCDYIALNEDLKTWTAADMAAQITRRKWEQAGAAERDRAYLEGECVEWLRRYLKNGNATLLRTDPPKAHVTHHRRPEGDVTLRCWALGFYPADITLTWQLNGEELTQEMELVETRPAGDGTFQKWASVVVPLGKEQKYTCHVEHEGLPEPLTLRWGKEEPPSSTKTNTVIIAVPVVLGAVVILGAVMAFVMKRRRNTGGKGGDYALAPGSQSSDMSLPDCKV

Chain of H2-D^d MHC-I molecule (P01900 whole entry, looked up): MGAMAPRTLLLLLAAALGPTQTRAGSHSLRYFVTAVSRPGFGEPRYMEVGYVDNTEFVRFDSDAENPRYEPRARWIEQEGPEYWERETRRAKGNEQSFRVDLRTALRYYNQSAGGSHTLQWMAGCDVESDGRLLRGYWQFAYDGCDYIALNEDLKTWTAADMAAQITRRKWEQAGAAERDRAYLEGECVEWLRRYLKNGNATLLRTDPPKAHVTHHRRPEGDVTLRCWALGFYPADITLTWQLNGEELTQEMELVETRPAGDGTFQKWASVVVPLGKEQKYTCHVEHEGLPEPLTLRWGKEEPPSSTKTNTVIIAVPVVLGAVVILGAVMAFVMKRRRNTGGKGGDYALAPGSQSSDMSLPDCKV

In the case of IGPGRAFYT [s.p.T9], the “comparison of H2-D^d binding titration curves of the 9-mer peptides” value [1] is reported as “do not differ from each other”.

With IGPGRAFYV [s.p.V9] the “comparison of H2-D^d binding titration curves of the 9-mer peptides” value [1] was “do not differ from each other”.

“s.p.TT10 (…), minimal V3 epitope of HIV-1MN gp120, gp120 314-323 (peptide)” showed an FI0.5 (peptide concentration giving a 50% increase in H2-D^d surface expression) [2] of 1 µg/mL.

Work on IGPGRAFYVV [s.p.VV10 (…)] yielded an FI0.5 (peptide concentration giving a 50% increase in H2-D^d surface expression) [2] of 1 µg/mL.
